Experimental data from US20140255392A1 (BAYER INTELLECTUAL PROPERTY GMBH, priority 2011, published 2014).

Biological target: T1, human kinase Mps-1 (Homo sapiens, UniProt P33981)
T1 construct: N-terminally GST-tagged human full length recombinant Mps-1 kinase; GST (N); purchased Invitrogen, Karslruhe, Germany PV4071
T1 sequence (P33981 1-857): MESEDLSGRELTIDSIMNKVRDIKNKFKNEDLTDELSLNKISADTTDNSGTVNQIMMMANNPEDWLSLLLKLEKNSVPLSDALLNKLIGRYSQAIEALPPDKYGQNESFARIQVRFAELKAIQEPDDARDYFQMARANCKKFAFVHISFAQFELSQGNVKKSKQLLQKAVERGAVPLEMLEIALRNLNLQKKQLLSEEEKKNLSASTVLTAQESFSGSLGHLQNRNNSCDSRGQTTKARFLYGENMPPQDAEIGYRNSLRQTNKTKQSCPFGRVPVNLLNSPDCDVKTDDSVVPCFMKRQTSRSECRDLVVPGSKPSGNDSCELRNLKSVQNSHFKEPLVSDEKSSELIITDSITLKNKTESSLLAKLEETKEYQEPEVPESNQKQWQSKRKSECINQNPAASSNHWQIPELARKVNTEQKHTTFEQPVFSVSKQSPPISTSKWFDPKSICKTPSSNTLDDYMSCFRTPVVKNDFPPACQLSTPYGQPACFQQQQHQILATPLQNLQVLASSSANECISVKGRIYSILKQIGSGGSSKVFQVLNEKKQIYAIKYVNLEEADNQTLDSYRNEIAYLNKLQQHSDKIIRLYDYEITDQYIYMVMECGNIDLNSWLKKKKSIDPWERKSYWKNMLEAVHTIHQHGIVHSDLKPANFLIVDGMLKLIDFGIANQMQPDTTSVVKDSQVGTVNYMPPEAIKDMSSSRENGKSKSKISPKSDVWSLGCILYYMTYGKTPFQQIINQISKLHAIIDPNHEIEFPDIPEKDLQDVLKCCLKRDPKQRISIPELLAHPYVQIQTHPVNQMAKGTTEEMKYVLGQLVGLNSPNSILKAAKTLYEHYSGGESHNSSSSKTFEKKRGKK
Test: Mps-1 kinase assay (TR-FRET)
Assay type: biochemical
Details: N-terminally GST-tagged human full length recombinant Mps-1; 10 μM ATP; 1 μM peptide substrate; 60 min at 22° C.
Method in brief: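 Kinase activity of N-terminally GST-tagged full-length recombinant Mps-1, used at about 1 nM final and set within the linear range, was measured on a biotinylated peptide substrate. Phosphopeptide was detected by TR-FRET from Eu-anti-phospho(Ser/Thr) antibody to streptavidin-XLent after 1 h at 22° C.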

IC50 | Structure (SMILES)
199 nM | Cc1cc(-c2cnc3c(NCCC(F)(F)F)cc(Oc4ccc(OC(F)(F)F)c(F)c4)cn23)ccc1C(=O)NC1(C)CC1 [Example 85, 4-{6-[3-F luoro-4-(trifluoromethoxy)phenoxy]-8-[(3,3,3-trifluoropropyl)amino]imidazo[1,2-a]pyridin-3-yl}-2-methyl-N-(1-methylcyclopropyl)benzamide]
15.9 nM | Cc1cc(-c2cnc3c(NCCC(F)(F)F)cc(-c4ccncc4)cn23)ccc1C(=O)NC1(C)CC1 [Example 90]
1.3 nM | Cc1cc(-c2cnc3c(NCCC(F)(F)F)cc(Oc4cccc(Cl)c4)cn23)ccc1C(=O)NC1CC1 [Example 31, 4-{6-(3-chlorophenoxy)-8-[(3,3,3-trifluoropropyl)amino]imidazo[1,2-a]pyridin-3-yl}-N-cyclopropyl-2-methylbenzamide]
4.2 nM | Cc1ccc(F)cc1Oc1cc(NCCC(F)(F)F)c2ncc(-c3ccc(C(=O)NC4(C)CC4)c(C)c3)n2c1 [Example 27, 4-{6-(5-Fluoro-2-methylphenoxy)-8-[(3,3,3-trifluoropropyl)amino]imidazo[1,2-a]pyridin-3-yl}-2-methyl-N-(1-methylcyclopropyl)benzamide]
2 nM | Cc1cc(-c2cnc3c(NCCC(F)(F)F)cc(Sc4ccccc4N)cn23)ccc1C(=O)NC1CC1 [Example 3-4, 4-{6-[(2-aminophenyl)sulfanyl]-8-[(3,3,3-trifluoropropyl)amino]imidazo[1,2-a]pyridin-3-yl}-N-cyclopropyl-2-methylbenzamide]
77.8 nM | COCCNc1cc(Oc2cc(F)ccc2C)cn2c(-c3ccc(C(=O)NC4CC4)c(C)c3)cnc12 [Example 172]
7.8 nM | CCNC(=O)c1ccc(-c2cnc3c(NCCC(F)(F)F)cc(Oc4cccc(OC)c4)cn23)cc1C [Example 56, N-ethyl-4-{6-(3-methoxyphenoxy)-8-[(3,3,3-trifluoropropyl)amino]imidazo[1,2-a]pyridin-3-yl}-2-methylbenzamide]
13.8 nM | Cc1ccc(F)cc1Oc1cc(NCC(F)F)c2ncc(-c3ccc(C(=O)NC4CC4)c(C)c3)n2c1 [Example 164, N-cyclopropyl-4-{8-[(2,2-difluoroethyl)amino]-6-(5-fluoro-2-methylphenoxy)imidazo[1,2-a]pyridin-3-yl}-2-methylbenzamide]
1.9 nM | CCNC(=O)c1ccc(-c2cnc3c(NCC4CCOCC4)cc(Oc4ccc(OC)c(F)c4)cn23)cc1C [Example 122, N-ethyl-4-{6-(3-fluoro-4-methoxyphenoxy)-8-[(tetrahydro-2H-pyran-4-ylmethyl)amino]imidazo[1,2-a]pyridin-3-yl}-2-methylbenzamide]
8.4 nM | Cc1cc(-c2cnc3c(NCCC(F)(F)F)cc(-c4ccccc4O)cn23)ccc1C(=O)N[C@H]1C[C@@H]1F (relative stereo) [Example 135, N-[rel-(1S,2S)-2-fluorocyclopropyl]-4-{6-(2-hydroxyphenyl)-8-[(3,3,3-trifluoropropyl)amino]imidazo[1,2-a]pyridin-3-yl}-2-methylbenzamide]
1 nM | CCNC(=O)c1ccc(-c2cc(NCCC(F)(F)F)c3ncc(-c4ccc(C(=O)NC5CC5)c(C)c4)n3c2)cc1C [Example 148, 4-{3-[4-(cyclopropylcarbamoyl)-3-methylphenyl]-8-[(3,3,3-trifluoropropyl)amino]imidazo[1,2-a]pyridin-6-yl}-N-ethyl-2-methylbenzamide]
123 nM | C=Cc1cc(NCCC(F)(F)F)c2ncc(-c3ccc(C(=O)NC4(C#N)CC4)c(C)c3)n2c1 [Example 96, N-(1-cyanocyclopropyl)-2-methyl-4-{8-[(3,3,3-trifluoropropyl)amino]-6-vinylimidazo[1,2-a]pyridin-3-yl}benzamide]
65.3 nM | CCc1cc(NCCC(F)(F)F)c2ncc(-c3ccc(C(=O)N[C@H]4C[C@@H]4F)c(C)c3)n2c1 (relative stereo) [Example 104, 4-{6-Ethyl-8-[(3,3,3-trifluoropropyl)amino]imidazo[1,2-a]pyridin-3-yl}-N-[rel-(1S,2S)-2-fluorocyclopropyl]-2-methylbenzamide]
29.4 nM | C=Cc1cc(NCCC(F)(F)F)c2ncc(-c3ccc(C(=O)N[C@H]4C[C@@H]4C)c(C)c3)n2c1 (relative stereo) [Example 98, 2-Methyl-N-[rel-(1S,2S)-2-methylcyclopropyl]-4-{8-[(3,3,3-trifluoropropyl)amino]-6-vinylimidazo[1,2-a]pyridin-3-yl}benzamide]
19.9 nM | Cc1cc(-c2cnc3c(NCCC(F)(F)F)cc(/C=C\CO)cn23)ccc1C(=O)N[C@@H]1C[C@H]1F (relative stereo) [Example 118, N-[rel-(1R,2R)-2-fluorocyclopropyl]-4-{6-[(1Z)-3-hydroxyprop-1-en-1-yl]-8-[(3,3,3-trifluoropropyl)amino]imidazo[1,2-a]pyridin-3-yl}-2-methylbenzamide]
0.6 nM | Cc1cc(F)cc(Sc2cc(NCCC(F)(F)F)c3ncc(-c4ccc(C(=O)NC5CC5)c(C)c4)n3c2)c1 [Example 3-1, N-cyclopropyl-4-{6-[(3-fluoro-5-methylphenyl)sulfanyl]-8-[(3,3,3-trifluoropropyl)amino]imidazo[1,2-a]pyridin-3-yl}-2-methylbenzamide]
19.9 nM | C/C=C/c1cc(NCCC(F)(F)F)c2ncc(-c3ccc(C(=O)N[C@H]4C[C@@H]4F)c(C)c3)n2c1 (relative stereo) [Example 116, N-[rel-(1S,2S)-2-fluorocyclopropyl]-2-methyl-4-{6-[(1E)-prop-1-en-1-yl]-8-[(3,3,3-trifluoropropyl)amino]imidazo[1,2-a]pyridin-3-yl}benzamide]
176 nM | COCCNc1cc(Oc2ccccc2C)cn2c(-c3ccc(C(=O)NC4CC4)c(C)c3)cnc12 [Example 170]
2.9 nM | CNC(=O)c1ccc(-c2cnc3c(NCCC(F)(F)F)cc(Oc4cc(F)ccc4C)cn23)cc1C [Example 25, 4-{6-(5-Fluoro-2-methylphenoxy)-8-[(3,3,3-trifluoropropyl)amino]imidazo[1,2-a]pyridin-3-yl}-N,2-dimethylbenzamide]
51 nM | CCNC(=O)c1ccc(-c2cnc3c(NCCC(F)(F)F)cc(Oc4cccc(OC(F)(F)F)c4)cn23)cc1C [Example 77, N-ethyl-2-methyl-4-{6-[3-(trifluoromethoxy)phenoxy]-8-[(3,3,3-trifluoropropyl)amino]imidazo[1,2-a]pyridin-3-yl}benzamide]
59.4 nM | C/C=C/c1cc(NCCC(F)(F)F)c2ncc(-c3ccc(C(=O)NC4(C#N)CC4)c(C)c3)n2c1 [Example 115, N-(1-cyanocyclopropyl)-2-methyl-4-{6-[(1E)-prop-1-en-1-yl]-8-[(3,3,3-trifluoropropyl)amino]imidazo[1,2-a]pyridin-3-yl}benzamide]
124 nM | CCNC(=O)c1ccc(-c2cnc3c(NCCC(F)(F)F)cc(Oc4ccc(OC(F)(F)F)cc4)cn23)cc1C [Example 68, N-ethyl-2-methyl-4-{6-[4-(trifluoromethoxy)phenoxy]-8-[(3,3,3-trifluoropropyl)amino]imidazo[1,2-a]pyridin-3-yl}benzamide]
1.3 nM | CCNC(=O)c1ccc(-c2cnc3c(NCCC(F)(F)F)cc(Oc4cccc(O)c4)cn23)cc1C [Example 138, N-ethyl-4-{6-(3-hydroxyphenoxy)-8-[(3,3,3-trifluoropropyl)amino]imidazo[1,2-a]pyridin-3-yl}-2-methylbenzamide]
7.3 nM | Cc1cc(-c2cnc3c(NCCC(F)(F)F)cc(Oc4cccc(F)c4)cn23)ccc1C(=O)NC1(CO)CC1 [Example 50, 4-{6-(3-Fluorophenoxy)-8-[(3,3,3-trifluoropropyl)amino]imidazo[1,2-a]pyridin-3-yl}-N-[1-(hydroxymethyl)cyclopropyl]-2-methylbenzamide]
2.3 nM | CCNC(=O)c1ccc(-c2cnc3c(NCCC(F)(F)F)cc(Oc4ccccc4)cn23)cc1C [Example 60, N-ethyl-2-methyl-4-{6-phenoxy-8-[(3,3,3-trifluoropropyl)amino]imidazo[1,2-a]pyridin-3-yl}benzamide]
0.3 nM | Cc1cc(-c2cnc3c(NCCC(F)(F)F)cc(-c4ccncc4)cn23)ccc1C(=O)NC1CC1 [Example 2-2, N-cyclopropyl-2-methyl-4-{6-(pyridin-4-yl)-8-[(3,3,3-trifluoropropyl)amino]imidazo [1,2-a]pyridin-3-yl} benzamide]
0.5 nM | Cc1cc(-c2cnc3c(NCCC(F)(F)F)cc(Oc4ccc(O)c(F)c4)cn23)ccc1C(=O)NC1CC1 [Example 129, N-cyclopropyl-4-{6-(3-fluoro-4-hydroxyphenoxy)-8-[(3,3,3-trifluoropropyl)amino]imidazo[1,2-a]pyridin-3-yl}-2-methylbenzamide]
